From patent US12011444B2, “N-substituted indole derivatives as PGE2 receptor modulators” (Idorsia Pharmaceuticals Ltd, priority 2015, dated 2024) come the findings set out here.

Broadly, the IC50 is the concentration at which inhibition is half-maximal.

The target of one assay is EP4 (Homo sapiens (Human), UniProt P35408). Briefly: hEP4 cAMP assay (BT549 breast cancer cells, HTRF cAMP). It counts as cell-based. Conditions: antagonistic activity; mean values where measured multiple times. The protocol: Plate is pre-incubated 45 minutes at room temperature. Subsequently, 2.5 microliters of PGE2 (final conc. 6 nM) are transferred into the assay plate. Plate is incubated 30 minutes at room temperature.
EP4, sequence (P35408 whole entry): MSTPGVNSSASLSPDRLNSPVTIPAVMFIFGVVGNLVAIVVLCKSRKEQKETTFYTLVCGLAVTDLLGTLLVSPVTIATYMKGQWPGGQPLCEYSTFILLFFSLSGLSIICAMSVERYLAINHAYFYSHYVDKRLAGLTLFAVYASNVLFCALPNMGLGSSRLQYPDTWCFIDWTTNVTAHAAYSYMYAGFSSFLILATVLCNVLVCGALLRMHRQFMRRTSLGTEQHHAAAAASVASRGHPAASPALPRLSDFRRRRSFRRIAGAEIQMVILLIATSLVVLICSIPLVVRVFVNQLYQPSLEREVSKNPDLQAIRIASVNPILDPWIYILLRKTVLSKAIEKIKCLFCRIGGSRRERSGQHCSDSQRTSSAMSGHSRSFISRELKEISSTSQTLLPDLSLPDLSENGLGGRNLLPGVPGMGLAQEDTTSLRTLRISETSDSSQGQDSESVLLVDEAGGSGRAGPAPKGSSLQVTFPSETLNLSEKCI
On the technique in general: Changes in cAMP serve as a functional read-out for many G protein-coupled receptors.

The next assay deals with EP2 (Homo sapiens (Human), UniProt P43116).
EP2, sequence (P43116 whole entry): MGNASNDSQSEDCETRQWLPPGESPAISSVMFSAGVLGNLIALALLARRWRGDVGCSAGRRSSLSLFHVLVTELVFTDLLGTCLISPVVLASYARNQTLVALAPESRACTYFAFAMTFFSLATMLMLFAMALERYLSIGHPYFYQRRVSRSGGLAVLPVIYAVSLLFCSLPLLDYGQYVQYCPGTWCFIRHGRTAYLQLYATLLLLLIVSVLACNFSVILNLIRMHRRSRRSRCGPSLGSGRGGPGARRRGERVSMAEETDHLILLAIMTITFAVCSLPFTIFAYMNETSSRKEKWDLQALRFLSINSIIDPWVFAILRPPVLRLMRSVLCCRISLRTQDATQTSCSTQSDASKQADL

As to `CCCc1cc(-c2cc(NCCn3c(C)cc4c(OC)ccc(F)c43)ncn2)cc(OCC)c1C(=O)O` [compound 634], the results for the concentration for half-maximal inhibition (IC50) against EP4 and against EP2 were 196 nM and 27 nM, respectively.
For `CCOc1cc(-c2cc(NCCn3c(C)cc4c(OC)cc(F)cc43)nc(C(F)(F)F)n2)sc1C(=O)O` [compound 635], in that order: 186 nM and 50 nM.
For `COc1cc(F)c(F)c2c1cc(C)n2CCNc1cc(-c2ccc(C(=O)O)c(OC(F)(F)F)c2)ncn1` [compound 636], in that order: 255 nM and 68 nM.
For `CCCOc1cc(-c2cc(NCCn3c(C)cc4c(OC)cc(F)c(F)c43)ncn2)cc(F)c1C(=O)O` [compound 637], the 50% inhibitory concentration (IC50) against EP4 was determined as 54 nM; against EP2 it was 25 nM.
For `CCCOc1cc(-c2cc(NCCn3c(C)cc4c(OC)cc(F)c(F)c43)ncn2)cc(Cl)c1C(=O)O` [compound 638], in that order: 33 nM and 61 nM.
For `COc1cc(F)c(F)c2c1cc(C)n2CCNc1cc(-c2ccc(-c3cnc(N)o3)cc2)ncn1` [compound 639], in that order: 37 nM and 23 nM.
As to `COc1cc(F)cc2c1cc(C)n2CCNc1cc(-c2ccc3[nH]c(C(F)(F)F)nc3c2)ncn1` [compound 640], the IC50 came to 430 nM against EP4 and 483 nM against EP2.
For `COc1cc(F)c(F)c2c1cc(C)n2CCNc1cc(-c2ccc(-c3cncn3C)cc2)ncn1` [compound 641], in that order: 153 nM and 114 nM.
In the case of `Cc1ccc(F)c2c1cc(C)n2CCNc1cc(-c2ccc(-c3cnc(CCC(=O)O)o3)cc2)ncn1` [compound 643], the values for the IC50 at EP4 and on EP2 were 706 nM and 294 nM, respectively.
`COc1cc(F)c(F)c2c1cc(C)n2CCNc1cc(-c2ccc(C(=O)O)c(NCC(F)(F)F)c2)ncn1` [compound 644, 4-{6-[2-(6,7-Difluoro-4-methoxy-2-methyl-indol-1-yl)-ethylamino]-pyrimidin-4-yl}-2-(2,2,2-trifluoro-ethylamino)-benzoic acid]: the IC50 amounted to 54 nM against EP4 and 6 nM at EP2.
For `CNc1nnc(-c2ccc(-c3cc(NCCn4c(C)cc5c(OC)cc(F)cc54)ncn3)cc2)s1` [compound 645], in that order: 16 nM and 9 nM.
`COc1ccc(F)c2c1cc(C)n2CCNc1cc(-c2ccc(-c3cnc(CCC(=O)O)o3)cc2)ncn1` [compound 646]: the results for the IC50 against EP4 and against EP2 were 312 nM and 48 nM, respectively.
For `Cc1nc(CCC(=O)O)oc1-c1ccc(-c2cc(NCCn3c(C)cc4c(C)cc(F)cc43)ncn2)cc1` [compound 647] the same measures were 302 nM and 146 nM.
For `Cc1nc(CCC(=O)O)oc1-c1ccc(-c2cc(NCCn3c(C)cc4c(C)ccc(F)c43)ncn2)cc1` [compound 648], in that order: 893 nM and 195 nM.
Take `COc1cccc2c1cc(C)n2CCNc1cc(-c2ccc(C(=O)O)c(Oc3ccc(F)cc3)c2)ncn1` [compound 649]: the IC50 at EP4 stood at 768 nM; against EP2 it was 13 nM.
For `Cc1ccc(F)c2c1cc(C)n2CCNc1cc(-c2ccc(C(=O)O)c(Oc3ccc(F)cc3)c2)ncn1` [compound 650] the same measures were 443 nM and 93 nM.
With `COc1cc(F)cc2c1cc(C)n2CCNc1cc(-c2ccc(-c3oc(CCC(=O)O)nc3C)cc2)ncn1` [compound 651], the figures for the IC50 against EP4 and against EP2 were 257 nM and 166 nM, respectively.
For `COc1ccc(F)c2c1cc(C)n2CCNc1cc(-c2ccc(-c3oc(CCC(=O)O)nc3C)cc2)ncn1` [compound 652], in that order: 136 nM and 60 nM.
For `Cc1nc(CCC(=O)O)oc1-c1ccc(-c2cc(NCCn3c(C)cc4c(C)cc(F)c(F)c43)ncn2)cc1` [compound 653], in that order: 527 nM and 428 nM.
For `COc1ccc(F)c2c1cc(C)n2CCNc1cc(-c2ccc(C(=O)O)c(Oc3ccc(F)cc3)c2)ncn1` [compound 654], in that order: 313 nM and 26 nM.
For `COc1cc(F)c(F)c2c1cc(C)n2CCNc1cc(-c2ccc(-c3oc(CCC(=O)O)nc3C)cc2)ncn1` [compound 655], the values for the IC50 at EP4 and on EP2 were 191 nM and 152 nM, respectively.
For `CCOc1cc(-c2cc(NCCn3c(C)cc4c(OC)cc(F)c(F)c43)ncn2)cc(F)c1-c1nnn[nH]1` [compound 656], in that order: 89 nM and 52 nM.
For `CCOc1cc(-c2cc(NCCn3c(C)cc4c(C)cc(F)c(F)c43)ncn2)cc(F)c1-c1nnn[nH]1` [compound 657] the same measures were 189 nM and 71 nM.
For `CCOc1cc(-c2cc(NCCn3c(C)cc4c(OC)cc(F)cc43)ncn2)cc(F)c1-c1nnn[nH]1` [compound 658], in that order: 287 nM and 24 nM.
With `CCNc1cc(-c2cc(NCCn3c(C)cc4c5c(cc(Cl)c43)OCO5)ncn2)ccc1-c1nnn[nH]1` [compound 659, [2-(5-Chloro-7-methyl-[1,3]dioxolo[4,5-e]indol-6-yl)-ethyl]-{6-[3-ethylamino-4-(1H-tetrazol-5-yl)-phenyl]-pyrimidin-4-yl}-amine], the IC50 at EP4 came to 54 nM; against EP2, 6 nM.
For `CCOc1cc(-c2cc(NCCn3c(C)cc4c(C)cc(F)cc43)ncn2)cc(F)c1-c1nnn[nH]1` [compound 660], in that order: 303 nM and 16 nM.
For `CCOc1cc(-c2cc(NCCn3c(C)cc4c(OC)ccc(F)c43)ncn2)ccc1-c1nnn[nH]1` [compound 661] the same measures were 39 nM and 4 nM.
For `CCOc1cc(-c2cc(NCCn3c(C)cc4c(OC)ccc(Cl)c43)ncn2)ccc1-c1nnn[nH]1` [compound 662], in that order: 136 nM and 8 nM.
On to `CCOc1cc(-c2cc(NCCn3c(C)cc4c(OC)cccc43)ncn2)ccc1-c1nnn[nH]1` [compound 664], for which the IC50 at EP4 came out at 95 nM; at EP2, 4 nM.
On to `CCNc1cc(-c2cc(NCCn3c(C)cc4c(OC)ccc(F)c43)ncn2)ccc1-c1nnn[nH]1` [compound 665, {6-[3-Ethylamino-4-(1H-tetrazol-5-yl)-phenyl]-pyrimidin-4-yl}-[2-(7-fluoro-4-methoxy-2-methyl-indol-1-yl)-ethyl]-amine], for which the figures for the IC50 on EP4 and against EP2 were 13 nM and 2 nM, respectively.
As for `CCNc1cc(-c2cc(NCCn3c(C)cc4c(OC)ccc(Cl)c43)ncn2)ccc1-c1nnn[nH]1` [compound 666, [2-(7-Chloro-4-methoxy-2-methyl-indol-1-yl)-ethyl]-{6-[3-ethylamino-4-(1H-tetrazol-5-yl)-phenyl]-pyrimidin-4-yl}-amine], the IC50 against EP4 was 40 nM; at EP2, 7 nM.
For `CCNc1cc(-c2cc(NCCn3c(C)cc4c(OC)cccc43)ncn2)ccc1-c1nnn[nH]1` [compound 667, {6-[3-Ethylamino-4-(1H-tetrazol-5-yl)-phenyl]-pyrimidin-4-yl}-[2-(4-methoxy-2-methyl-indol-1-yl)-ethyl]-amine] the same measures were 17 nM and 2 nM.
For `CCNc1cc(-c2cc(NCCn3c(C)cc4c(C)ccc(F)c43)ncn2)ccc1-c1nnn[nH]1` [compound 668, {6-[3-Ethylamino-4-(1H-tetrazol-5-yl)-phenyl]-pyrimidin-4-yl}-[2-(7-fluoro-2,4-dimethyl-indol-1-yl)-ethyl]-amine], in that order: 22 nM and 8 nM.
As to `CCOc1cc(-c2cc(NCCn3c(C)cc4ccccc43)ncn2)ccc1-c1nnn[nH]1` [compound 669], the IC50 on EP4 came to 644 nM; against EP2, 2 nM.
For `COc1cc(-c2cc(NCCn3c(C)cc4c(OC)cccc43)ncn2)ccc1-c1nnn[nH]1` [compound 670, [2-(4-Methoxy-2-methyl-indol-1-yl)-ethyl]-{6-[3-methoxy-4-(1H-tetrazol-5-yl)-phenyl]-pyrimidin-4-yl}-amine], in that order: 406 nM and 8 nM.
For `CCNc1cc(-c2cc(NCCn3c(C)cc4ccccc43)ncn2)ccc1-c1nnn[nH]1` [compound 671, {6-[3-Ethylamino-4-(1H-tetrazol-5-yl)-phenyl]-pyrimidin-4-yl}-[2-(2-methyl-indol-1-yl)-ethyl]-amine], in that order: 136 nM and 2 nM.
For `CCCCOc1cc(-c2cc(NCCn3c(C)cc4c(OC)cc(F)cc43)ncn2)sc1C(=O)O` [compound 672], in that order: 3 nM and 1 nM.
For the compound `CCCCOc1cc(-c2cc(NCCn3c(C)cc4c(OC)ccc(F)c43)ncn2)sc1C(=O)O` [compound 673], the half-maximal inhibitory concentration (IC50) was determined as 3 nM against EP4 and 2 nM on EP2.
For `CCCOc1cc(-c2cc(NCCn3c(C)cc4c(OC)cc(F)cc43)ncn2)sc1C(=O)O` [compound 674] the same measures were 6 nM and 2 nM.
For `COc1ccc(F)c2c1cc(C)n2CCNc1cc(-c2cc(OC(C)C)c(C(=O)O)s2)ncn1` [compound 675], in that order: 7 nM and 4 nM.
For `COc1cc(F)cc2c1cc(C)n2CCNc1cc(-c2cc(OC(C)C)c(C(=O)O)s2)ncn1` [compound 676] the same measures were 9 nM and 3 nM.
Turning to `CCCOc1cc(-c2cc(NCCn3c(C)cc4c(OC)ccc(F)c43)ncn2)sc1C(=O)O` [compound 677], the values for the half-maximal inhibitory concentration (IC50) on EP4 and at EP2 were 12 nM and 2 nM, respectively.
`COc1cc(F)c(F)c2c1cc(C)n2CCNc1cc(-c2ccc(-c3noc(=O)[nH]3)cc2)ncn1` [compound 678, 3-(4-{6-[2-(6,7-Difluoro-4-methoxy-2-methyl-indol-1-yl)-ethylamino]-pyrimidin-4-yl}-phenyl)-4H-[1,2,4]oxadiazol-5-one]: the results for the IC50 on EP4 and against EP2 were 40 nM and 33 nM, respectively.
